Earlier results in patent US20240315991A1, “USES OF HNF4 ALPHA AGONISTS” (Sanford Burnham Prebys Medical Discovery Institute, priority 2023, published 2024).

How the values were obtained:
HNF4α [1] = target: T1, HNF4α (Homo sapiens, UniProt P41235); conditions: GFP expressed under the control of the human insulin promoter; cited from earlier work
T1 sequence (P41235 1-474): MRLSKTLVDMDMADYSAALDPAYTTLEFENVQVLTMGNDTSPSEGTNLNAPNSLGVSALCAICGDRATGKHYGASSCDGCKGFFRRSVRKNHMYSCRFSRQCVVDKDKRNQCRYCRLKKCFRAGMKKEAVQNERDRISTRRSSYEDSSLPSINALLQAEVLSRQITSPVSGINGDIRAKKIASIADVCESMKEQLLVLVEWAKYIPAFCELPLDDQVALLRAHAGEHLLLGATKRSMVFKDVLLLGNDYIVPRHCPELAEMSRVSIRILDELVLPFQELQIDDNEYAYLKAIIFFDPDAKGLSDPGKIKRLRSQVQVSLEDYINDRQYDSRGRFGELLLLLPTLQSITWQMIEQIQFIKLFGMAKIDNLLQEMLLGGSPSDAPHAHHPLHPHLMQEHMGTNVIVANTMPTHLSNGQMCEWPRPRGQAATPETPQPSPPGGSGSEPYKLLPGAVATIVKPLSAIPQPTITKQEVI

HNF4α [2] = target: T1, HNF4α; conditions: cited from earlier work
[3] = cited from earlier work

With `CCN(CCCc1ccccc1)CCCc1ccccc1` [Alverine] as the compound, how does the “agonism of HNF4α” value (HNF4α [1]) read?
The value was “weak agonists”.

For `CC(Cc1cccc(C(F)(F)F)c1)NCCOC(=O)c1ccccc1` (centres unmarked) [Benfluorex], which “agonism of HNF4α” value (HNF4α [1]) is on record?
The value was “weak agonists”.

Which “specificity for HNF4α” value (HNF4α [2]; HNF4α siRNA ablates their effect) does the source give for `COc1cc(/C=C/C(=O)NCCc2ccc(O)cc2)ccc1O` [NFT, N-trans feruloyltyramine, reference compound] here?
Its value is “exhibit specificity for HNF4α”.

What about the “activation of HNF4α, potency compared with Alverine and Benfluorex” value (HNF4α [2]) of the same compound?
Its value is “much more potent activators”.

And the oral bioavailability [3]?
The oral bioavailability was “poor”.
